pIC50: −log10 of the molar value.
Legend:
[1] = Steady-state PK in study SMP05-010; type: in vivo, Mouse (Balb/C)
[2] = test system: endothelial cell; experiment: Endothelial cell proliferation in vitro
[3] = target: estrogen receptor β (Homo sapiens, UniProt Q92731); details: LaVallee et al. 2002; cited from earlier work
[4] = test system: synovial microvessels; experiment: Synovial vascularity by laminin immunostaining; type: in vivo, Rat (Lewis); details: between the various treatment groups and vehicle, any vessel size
Procedure: (§1) Tissue samples, including joints, were fixed in 10% phosphate-buffered formalin or AFA fixative ([…], 2% formalin, 5% glacial acetic acid, 20% water), the latter for immunostaining. Samples were then decalcified in formic or acetic acid and paraffin embedded. Sections (5 μm) were stained with hematoxylin-eosin (H&E) using routine techniques. To stain cartilage proteoglycan, separate sections were stained with safranin O (Difco, Detroit, Mich.) for 1 min. as described previously (Issekutz, (2001). To assess microvessel density in the synovium, rabbit anti-mouse laminin polyclonal IgG antibody (Cedarlane Laboratories Limited, Homby, ON) was used to outline vessels, with detection using biotinylated goat anti-rabbit IgG antibody and avidin-biotin complexed with HRPO according to manufacturer's recommendations (Vectastain Elite ABC kit; Vector Laboratories Canada Inc., Burlington, ON).
To assess synovial vascularity and angiogenesis, sections were immunostained for laminin to reliably delineate microvessels as well as medium-sized vessels. […] The other commonly used endothelial cell marker, CD31, was also evaluated on the synovial tissue. […] This vascularity was quantitated in synovia from rats treated with the various protocols and compared to vehicle-treated animals. […] Only vessels that were in cross-section were scored. […]

[5] = test system: joint synovium and articular cartilage; experiment: Joint histology and cartilage damage (H&E, safranin O); type: in vivo, Rat (Lewis)
Procedure: as §1
Even by the H&E staining the cartilage damage is visible on the articular surfaces and margins. This is more profoundly illustrated by the safranin O staining with marked focal proteoglycan loss and fragmentation.

[6] = test system: Arthrogen Collagen MAb-Induced Arthritis; experiment: Arthrogen collagen MAb-induced arthritis (Arthrogen-CIA model of RA); type: in vivo, Mouse (Balb/C)
[7] = test system: spleen; experiment: Splenomegaly and spleen histology in adjuvant arthritis; type: in vivo, Rat (Lewis)
Procedure: During the course of AA in the rat, splenomegaly is a prominent feature due to splenitis, lymphoid hyperplasia and even abscess formation. Therefore the splenic enlargement in these animals was monitored for any effect of 2ME2 on this parameter. In rats that were treated with vehicle, spleen weights increased dramatically, increasing nearly three-fold.
A histological examination of the spleens was undertaken in the different groups. The appearance of a normal rat spleen (A) and vehicle-treated spleen (B).

[8] = test system: PMNL migration to dermal inflammatory reactions; experiment: 51Cr-labeled PMNL migration to dermal inflammatory reactions; type: in vivo, Rat (Lewis)
From the text: Rat blood PMNL were isolated from a donor arthritic rat by hydroxyethyl starch (Hespan; Dupont Merck, Wilmington, Del.) exchange transfusion performed through a needle inserted in a femoral vein. The exchanged blood was collected into heparin and acid-citrate-dextrose (ACD, formula A; Fenwal-Travenol, Malton, ON) and the leukocyte-rich plasma was harvested during 1 g sedimentation of red blood cells. The PMNL were then isolated by centrifugation on discontinuous Percoll density gradients of 63% Percoll above 74% Percoll with 10% autologous plasma and calcium and magnesium-free Tyrode's solution (TyS^-/-) for the balance of the suspending medium. […] After the cells were washed, they were injected i.v. into rats at a dose of 10^7 51Cr-labeled PMNL per animal bearing approximately 1-2×10^5 cpm. These cells were allowed to circulate and migrate for 2 h prior to sacrifice of the rats. […] List Biologicals, Campbell, Calif.) or zymosan-activated serum (rat) as a source of […].^22 2 h before sacrifice, administered in the doses indicated at the same time as the i.v. injection of radiolabeled PMNL. The accumulation of PMNL in these sites was quantified by biopsy of the injection sites using a 12-mm punch biopsy taken following sacrifice of the animals. At the time the rats were killed, cardiac blood was obtained to measure the blood leukocyte count and the leukocyte and plasma associated radioactivity. Joints were dissected and segments of limbs sectioned to include carpal, metacarpal, […] metatarsal joints for analysis as previously reported (Issekutz et al. Lab Invest. (1991), 64:656-63 and Issekutz et al. Arthritis Rheum. (2001), 44:1428-37). The content of ^51Cr in the joints, as well as in dermal skin sites and internal organs, was determined with a Wallac LKB 1280 gamma counter (Fisher Scientific, Nepean, ON). Accumulated isotope in the tissue was expressed as cpm/10^6 cpm injected i.v. In the same rats, the migration of PMNL to dermal inflammatory reactions was measured, these reactions being initiated at the time of radiolabeled PMNL injection. Thus the migration quantitated the acute reaction during the first two hours of the lesions.

[9] = test system: lymph node cells from rats with AA; experiment: Lymph node cell proliferation in vitro (3H-thymidine incorporation)
Procedure: Because of the effect of 2ME2 treatment on arthritis severity and the response in the spleen during AA, the T lymphocyte reactivity to mitogens the Mycobacterial purified protein derivative (PPD) antigen was evaluated. […] The effect of various concentrations of 2ME2 in vitro on this proliferative response was evaluated. […] To further assess the effect of 2ME2 on lymphocyte responsiveness, lymph node cells harvested from rats treated with 2ME2 (30 mg/kg/d) from day 6-14 post-immunization were tested for proliferative response to PPD and the mitogens, Con A and PHA and compared to lymphocytes from vehicle-treated animals.

[10] = test system: Collagen-Induced Arthritis; experiment: Collagen-induced arthritis (UCLA studies); type: in vivo, Rat (Louvain)

Sequence of estrogen receptor β (Q92731 whole entry): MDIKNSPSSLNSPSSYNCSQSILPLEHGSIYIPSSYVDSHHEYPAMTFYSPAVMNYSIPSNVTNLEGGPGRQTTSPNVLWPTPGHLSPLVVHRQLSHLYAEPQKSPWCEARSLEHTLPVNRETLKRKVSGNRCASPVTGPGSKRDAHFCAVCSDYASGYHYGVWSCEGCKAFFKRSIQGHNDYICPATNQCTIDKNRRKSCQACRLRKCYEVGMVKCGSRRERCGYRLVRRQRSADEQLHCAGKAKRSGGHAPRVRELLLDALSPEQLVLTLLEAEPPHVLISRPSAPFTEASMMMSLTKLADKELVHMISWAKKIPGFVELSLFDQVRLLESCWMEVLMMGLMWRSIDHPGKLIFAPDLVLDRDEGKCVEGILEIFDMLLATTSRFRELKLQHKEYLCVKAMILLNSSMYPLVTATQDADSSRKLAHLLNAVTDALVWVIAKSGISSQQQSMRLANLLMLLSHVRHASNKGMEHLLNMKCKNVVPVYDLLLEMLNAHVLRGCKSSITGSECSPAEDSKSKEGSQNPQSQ

COc1cc2c(cc1O)CC[C@@H]1[C@@H]2CC[C@]2(C)[C@@H](O)CC[C@@H]12 [2ME2, 2-methoxyestradiol]
Steady-state AUC0-24 ([1]; 25 mg/kg PO): 66 ng·h/mL | Steady-state AUC0-24 ([1]; 50 mg/kg PO): 117 ng·h/mL | IC50, endothelial cell proliferation ([2]; optimal serum and endothelial cell growth supplements): approximately 0.5 μg/mL | concentration required for inhibition under optimal versus restricted growth conditions ([2]; optimal serum and growth supplements versus restricted): two-fold higher concentration | pIC50 ([2]; read-out: IC50, endothelial cell proliferation, optimal serum and endothelial cell growth supplements): ~5.82 | concentration giving significant inhibition of endothelial cell proliferation ([2]; restricted serum and growth factor): 0.25 µg/mL | affinity for estrogen receptor β [3]: low affinity | vessel density per 0.8 mm^2 (small, medium, large vessels) in synovium [4]: no significant difference | articular cartilage surfaces and proteoglycan staining ([5]; 100 mg/kg/d initiated at day 6 post-immunization): preservation of articular cartilage surfaces and proteoglycan staining | leukocyte infiltration of the synovium ([5]; 100 mg/kg/d initiated at day 6 post-immunization, compared to vehicle): less intense leukocyte infiltration | cartilage preservation ([5]; treatment delayed to day 10): cartilage preservation was still observed | leukocyte cellularity in the synovium ([5]; treatment delayed to day 10): less noticeably affected | arthritic score ([6]; FIG. 1): decreases | synovial inflammation ([6]; FIG. 2, 100 mg/kg versus control): inhibits | periarticular inflammatory infiltrate and fibrosis ([6]; FIG. 3, 100 mg/kg versus control): inhibition | loss of proteoglycan in articular cartilage and induction of osteoclast activity ([6]; FIG. 4, 100 mg/kg versus control): prevents | severity of RA progression ([6]; FIG. 5): inhibit | percent inhibition of arthritic score ([6]; FIG. 7, 2ME2 in combination with methotrexate): unexpected increase | radiographic assessment ([6]; FIG. 8): radiographic evidence of 2ME2's anti-rheumatic effect | inhibition of clinical arthritic score, inflammation, cartilage degradation, bone resorption, and pannus formation ([6]; Study SMP04-040, 1, 10, 100 mg/kg/d PO, prevention (start 1 day after induction), Panzem NCD formulation): Dose-dependent | inhibition of clinical arthritic score, inflammation, cartilage degradation, bone resorption, and pannus formation ([6]; Study SMP05-009, 100 mg/kg/d, 100 mg/kg/week, 100 mg/kg twice a week PO, prevention): Regimen- | inhibition of clinical arthritic score, inflammation, cartilage degradation, bone resorption, and pannus formation ([6]; Study SMP05-010, 10, 25, 50, 75, 100 mg/kg/d PO, prevention): Dose-dependent | inhibition of clinical arthritic score upon combination of the two drugs ([6]; Study SMP05-046, 2ME2 10 or 100 mg/kg/d PO combined with MTX 0.1 or 1 mg/kg/d IP, prevention): Additive | pathology in the liver ([6]; Study SMP05-046, 2ME2 PO in combination with MTX IP): No pathology | pathology in the liver ([6]; Study SMP05-046, either drug alone (2ME2 10 or 100 mg/kg/d PO; MTX 0.1 or 1 mg/kg/d IP)): No pathology | spleen histology ([7]; 30 mg/kg/d from day 6-14 post-immunization, no increase in giant cells or abscess formation, no lymphoid hyperplasia): Only mild splenitis | increase in spleen weight (splenic enlargement) ([7]; 30 mg/kg/d started on day 6 post-immunization): completely inhibited | splenic abscess formation, giant cells, and lymphoid hyperplasia ([7]; Dalhousie Study #1, 30, 100 mg/kg/d PO): Decreased | increase in spleen weight (splenic enlargement) ([7]; high dose (100 mg/kg/d) started on day 6 post-immunization): completely inhibited | splenic enlargement ([7]; treatment initiated at day 10): markedly inhibited | PMNL migration to E. coli LPS ([8]; dermal sites, 2 h migration): did not affect | PMNL migration to complement chemotactic factor C5ades-arg ([8]; dermal sites, 2 h migration): did not affect | inhibition of PMNL migration to sites injected with rat TNF-α ([8]; either dose tested (30 or 100 mg/kg/d), starting at day 6 post-immunization): approximately 50% | inhibition of PMNL migration to sites injected with rat TNF-α ([8]; treatment delayed to day 10, tendency for inhibition): did not reach significance | IC50, lymphocyte response to PPD ([9]; 2ME2 added on day of culture initiation, 6 days): about 0.3 μg/mL | viability ([9]; all cultures): ≥ 85 % live cells | spontaneous proliferation in unstimulated cultures ([9]; in vitro): decreased | proliferation induced by the mitogens (Con A, PHA) ([9]; in vitro, compared with effect on PPD response): comparable inhibitory effect | effect on viability ([9]; lymph node cell cultures): no effect on viability | onset of disease ([10]; UCLA Study #1, PO): Delays onset | inhibition of clinical arthritic score and bone erosion ([10]; UCLA Study #1, prevention 30, 100 mg/kg/d PO, treatment 10, 30, 100 mg/kg/d PO): Dose dependent | inhibition of clinical arthritic score, inflammation, and bone erosion, cartilage degradation and pannus formation ([10]; UCLA Study #2, treatment from day 10, 50 mg/kg BID, 100 or 300 mg/kg/d PO or 60 mg/kg/d SC osmotic pumps): Dose dependent
